Laboratory results as given in patent US20250332178A1, “METHODS OF TREATING MYCOBACTERIAL INFECTIONS USING TETRACYCLINE COMPOUNDS” (priority 2018, published 2025).
Converted amounts (≈) assume the structure as drawn.

How the values were obtained:
M. smegmatis group = test: MIC (CLSI broth dilution), RGM isolates; type: cell-based
[1] = tested on: rapid-growing mycobacteria (RGM) isolates; test: MIC (CLSI broth dilution), all RGM isolates; type: cell-based, nontuberculous mycobacteria; conditions: all 50 RGM isolates
M. abscessus complex = test: MIC (CLSI broth dilution), RGM isolates; type: cell-based
Mycobacterium fortuitum = test: MIC by broth microdilution in CAMHB, clinical isolates; type: cell-based
Method: (§1) A total of 24 clinical isolates of Mycobacterium abscessus, 22 clinical isolates of Mycobacterium chelonae and 20 clinical isolates of Mycobacterium fortuitum were tested in the study. The study also used the antibiotics tigecycline, doxycycline and amikacin for comparison purposes. […] Amikacin was dissolved in DMSO prior to freezing at −20° C. For susceptibility testing, stock solutions of antibiotic compounds were serially diluted in 50 μL of cation adjusted Mueller-Hinton broth (CAMHB) in polystryrene 96-well round-bottom microtiter plates. To each well, 50 μL of the appropriate mycobacterial cell suspension was added to yield a final concentration of about 1×10^5 CFU/mL. The inoculum used for each isolate was measured by titration in saline with Tween 80 and plating on MH agar. The Mycobacterium abscessus and Mycobacterium fortuitum titer plates were incubated at 37° C. in ambient air for 3-4 days and 5-7 days, respectively. The Mycobacterium chelonae titer plates were incubated at 30° C. in ambient air for 3-5 days. Each isolate was tested at least in duplicate. The MIC was defined as the lowest concentration of antimicrobial agent yielding no visible turbidity.

Mycobacterium abscessus = test: as above; type: cell-based
Method: as §1

[2] = 24 clinical isolates (tigecycline: subset N=14)

Question: NCC[C@H](O)C(=O)N[C@@H]1C[C@H](N)[C@@H](O[C@H]2O[C@H](CN)[C@@H](O)[C@H](O)[C@H]2O)[C@H](O)[C@H]1O[C@H]1O[C@H](CO)[C@@H](O)[C@H](N)[C@H]1O [Amikacin, amikacin] was tested. Which MIC (M. smegmatis group; isolate 49, M. smegmatis group, M. goodii) did it give?
Answer: ≤2 µg/mL

Question: And the MIC (M. smegmatis group; isolate 50, M. smegmatis group, M. wolinskyi)?
Answer: ≤2 µg/mL

Question: What about the MIC50 [1] of the same molecule?
Answer: 4 µg/mL (≈ 6.83 µM)

Question: And the MIC90 [1]?
Answer: 16 µg/mL (≈ 27.3 µM)

Question: And the MIC (M. abscessus complex; isolate 1, M. abscessus complex, erm gene type MAB30)?
Answer: 8 µg/mL (≈ 13.7 µM)

Question: What about the MIC (M. abscessus complex; isolate 2, M. abscessus complex, erm gene type MAB30) of the same molecule?
Answer: 4 µg/mL (≈ 6.83 µM)

Question: And the MIC (M. abscessus complex; isolate 3, M. abscessus complex, erm gene type MAB30)?
Answer: 16 µg/mL (≈ 27.3 µM)

Question: What about the MIC (M. abscessus complex; isolate 4, M. abscessus complex, erm gene type massiliense) of the same molecule?
Answer: 8 µg/mL (≈ 13.7 µM)

Question: What about the MIC (M. abscessus complex; isolate 5, M. abscessus complex, erm gene type massiliense/subsp. abs hybrid) of the same molecule?
Answer: 32 µg/mL (≈ 54.6 µM)

Question: What about the MIC (M. abscessus complex; isolate 6, M. abscessus complex, erm gene type Type 1 abscessus) of the same molecule?
Answer: 8 µg/mL (≈ 13.7 µM)

Question: What about the MIC (M. abscessus complex; isolate 7, M. abscessus complex, erm gene type Type 1 abscessus) of the same molecule?
Answer: 8 µg/mL (≈ 13.7 µM)

Question: What about the MIC (M. abscessus complex; isolate 8, M. abscessus complex, erm gene type Type 1 abscessus) of the same molecule?
Answer: 8 µg/mL (≈ 13.7 µM)

Question: What about the MIC (M. abscessus complex; isolate 9, M. abscessus complex, erm gene type Type 1 abscessus) of the same molecule?
Answer: >64 µg/mL

Question: And the MIC (M. abscessus complex; isolate 10, M. abscessus complex, erm gene type Type 1 abscessus)?
Answer: 16 µg/mL (≈ 27.3 µM)

Question: What about the MIC (M. abscessus complex; isolate 11, M. abscessus complex, erm gene type Type 6 abscessus) of the same molecule?
Answer: 16 µg/mL (≈ 27.3 µM)

Question: And the MIC (M. abscessus complex; isolate 12, M. abscessus complex, erm gene type Type 6 abscessus)?
Answer: 8 µg/mL (≈ 13.7 µM)

Question: And the MIC (M. abscessus complex; isolate 13, M. abscessus complex, erm gene type Type 6 abscessus)?
Answer: 4 µg/mL (≈ 6.83 µM)

Question: What about the MIC (M. abscessus complex; isolate 14, M. abscessus complex, erm gene type Type 6 abscessus) of the same molecule?
Answer: 16 µg/mL (≈ 27.3 µM)

Question: What about the MIC (M. abscessus complex; isolate 15, M. abscessus complex, erm gene type Type 7 abscessus) of the same molecule?
Answer: 8 µg/mL (≈ 13.7 µM)

Question: And the MIC (M. abscessus complex; isolate 16, M. abscessus complex, erm gene type Type 7 abscessus)?
Answer: 16 µg/mL (≈ 27.3 µM)

Question: And the MIC (M. abscessus complex; isolate 17, M. abscessus complex, erm gene type Type 8 abscessus)?
Answer: 4 µg/mL (≈ 6.83 µM)

Question: And the MIC50 (Mycobacterium fortuitum; 20 clinical isolates)?
Answer: 0.5 µg/mL (≈ 0.854 µM)

Question: What about the MIC90 (Mycobacterium fortuitum; 20 clinical isolates) of the same molecule?
Answer: 4 µg/mL (≈ 6.83 µM)

Question: What about the MIC (Mycobacterium fortuitum; isolate No. 1, 3349) of the same molecule?
Answer: 8 µg/mL (≈ 13.7 µM)

Question: And the MIC (Mycobacterium fortuitum; isolate No. 2, 3499)?
Answer: 0.25 µg/mL (≈ 0.427 µM)

Question: And the MIC (Mycobacterium fortuitum; isolate No. 3, 2797)?
Answer: 2 µg/mL (≈ 3.42 µM)

Question: What about the MIC (Mycobacterium fortuitum; isolate No. 4, 32) of the same molecule?
Answer: 1 µg/mL (≈ 1.71 µM)

Question: And the MIC (Mycobacterium fortuitum; isolate No. 5, 33)?
Answer: 2 µg/mL (≈ 3.42 µM)

Question: And the MIC (Mycobacterium fortuitum; isolate No. 6, 3489)?
Answer: 1 µg/mL (≈ 1.71 µM)

Question: What about the MIC (Mycobacterium fortuitum; isolate No. 7, 3491) of the same molecule?
Answer: 1 µg/mL (≈ 1.71 µM)

Question: And the MIC (Mycobacterium fortuitum; isolate No. 8, 54)?
Answer: 0.5 µg/mL (≈ 0.854 µM)

Question: What about the MIC (Mycobacterium fortuitum; isolate No. 9, 38) of the same molecule?
Answer: 0.5 µg/mL (≈ 0.854 µM)

Question: What about the MIC (Mycobacterium fortuitum; isolate No. 10, 36) of the same molecule?
Answer: 1 µg/mL (≈ 1.71 µM)

Question: What about the MIC (Mycobacterium fortuitum; isolate No. 11, 3480) of the same molecule?
Answer: 0.5 µg/mL (≈ 0.854 µM)

Question: What about the MIC (Mycobacterium fortuitum; isolate No. 12, 3126) of the same molecule?
Answer: 0.5 µg/mL (≈ 0.854 µM)

Question: And the MIC (Mycobacterium fortuitum; isolate No. 13, 3579)?
Answer: 1 µg/mL (≈ 1.71 µM)

Question: And the MIC (Mycobacterium fortuitum; isolate No. 14, 7484)?
Answer: 16 µg/mL (≈ 27.3 µM)

Question: What about the MIC (Mycobacterium fortuitum; isolate No. 15, 3488) of the same molecule?
Answer: 0.5 µg/mL (≈ 0.854 µM)

Question: And the MIC (Mycobacterium fortuitum; isolate No. 16, 3276)?
Answer: 0.5 µg/mL (≈ 0.854 µM)

Question: What about the MIC (Mycobacterium fortuitum; isolate No. 17, 3442) of the same molecule?
Answer: 0.5 µg/mL (≈ 0.854 µM)

Question: And the MIC (Mycobacterium fortuitum; isolate No. 18, 3316)?
Answer: 0.125 µg/mL (≈ 0.213 µM)

Question: And the MIC (Mycobacterium fortuitum; isolate No. 19, 3490)?
Answer: 0.5 µg/mL (≈ 0.854 µM)

Question: What about the MIC (Mycobacterium fortuitum; isolate No. 20, 2491) of the same molecule?
Answer: 4 µg/mL (≈ 6.83 µM)

Question: What about the MIC50 (Mycobacterium abscessus; [2]) of the same molecule?
Answer: 2 µg/mL (≈ 3.42 µM)

Question: What about the MIC90 (Mycobacterium abscessus; [2]) of the same molecule?
Answer: 8 µg/mL (≈ 13.7 µM)

Question: And the MIC (Mycobacterium abscessus; isolate No. 1, BB2)?
Answer: 8 µg/mL (≈ 13.7 µM)

Question: And the MIC (Mycobacterium abscessus; isolate No. 2, BB4)?
Answer: 8 µg/mL (≈ 13.7 µM)

Question: And the MIC (Mycobacterium abscessus; isolate No. 3, 5922)?
Answer: 2 µg/mL (≈ 3.42 µM)

Question: What about the MIC (Mycobacterium abscessus; isolate No. 4, BB3) of the same molecule?
Answer: 2 µg/mL (≈ 3.42 µM)

Question: And the MIC (Mycobacterium abscessus; isolate No. 5, BB6)?
Answer: 4 µg/mL (≈ 6.83 µM)

Question: And the MIC (Mycobacterium abscessus; isolate No. 6, 5908)?
Answer: 2 µg/mL (≈ 3.42 µM)

Question: And the MIC (Mycobacterium abscessus; isolate No. 7, BB7)?
Answer: 0.5 µg/mL (≈ 0.854 µM)

Question: And the MIC (Mycobacterium abscessus; isolate No. 8, 6031)?
Answer: 0.5 µg/mL (≈ 0.854 µM)

Question: What about the MIC (Mycobacterium abscessus; isolate No. 9, 5785) of the same molecule?
Answer: 1 µg/mL (≈ 1.71 µM)

Question: And the MIC (Mycobacterium abscessus; isolate No. 10, BB8)?
Answer: 2 µg/mL (≈ 3.42 µM)

Question: And the MIC (Mycobacterium abscessus; isolate No. 11, 6111)?
Answer: 2 µg/mL (≈ 3.42 µM)

Question: And the MIC (Mycobacterium abscessus; isolate No. 12, 6005)?
Answer: 4 µg/mL (≈ 6.83 µM)

Question: And the MIC (Mycobacterium abscessus; isolate No. 13, 5605)?
Answer: 2 µg/mL (≈ 3.42 µM)

Question: And the MIC (Mycobacterium abscessus; isolate No. 14, 5931)?
Answer: 0.5 µg/mL (≈ 0.854 µM)

Question: And the MIC (Mycobacterium abscessus; isolate No. 15, BB1)?
Answer: 2 µg/mL (≈ 3.42 µM)

Question: And the MIC (Mycobacterium abscessus; isolate No. 16, BB5)?
Answer: 8 µg/mL (≈ 13.7 µM)

Question: What about the MIC (Mycobacterium abscessus; isolate No. 17, 5812) of the same molecule?
Answer: 4 µg/mL (≈ 6.83 µM)
